This experiment has as its system STZ induced diabetic nephropathy in rats. The experiment in a line: Study 3: HCQ and its combination with Losartan, Telmisartan, Azilsartan and Ramipril. Particulars: oral once daily 8 weeks. Format: in vivo, Wistar rats. The protocol:
The methods described in Terri et al, Diabetes Volume, 1997, 46:1612-1618, and Takashi et al, Jpn J. Pharmacol, 1997, 75, 59-64, were followed for inducing Diabetes in rats by injecting Streptozotocin. The Efficacy of the drugs was tested in two different models, one involving comparison with diabetic control (i.e. Diabetic Rats not treated with any medication) and the other involving comparison with the anti-diabetic control group (i.e. Diabetic rats administered Glimepiride) in two separate studies.
Male Wistar rats weighing 150-350 g were divided randomly into 29 groups consisting of 6 animals each. Diabetes was induced in rats by single administration of streptozotocin (55 mg/kg/i.p) dissolved in 0.1 M-citrate buffer, pH 4.5. Group 1 (normal control) consisted of normal rats that neither received streptozotocin nor any test drug; Group 2 consisted of normal rats treated with vehicle, Group 3 served as Streptozotocin (STZ) induced diabetic control. Group 4 was diabetic rats treated with Losartan (LT) (5.5 mg/kg); Group 5 was diabetic rats treated with LT (11 mg/kg); Group 6 was diabetic rats treated with Hydroxychloroquine (HCQ) (22.5 mg/kg), Group 7 was diabetic rats treated with HCQ (45 mg/kg); Group 8 was diabetic rats treated with combination of LT (5.5 mg/kg) and HCQ (22.5 mg/kg); Group 9 was diabetic rats treated with combination of LT (5.5 mg/kg) and HCQ (45 mg/kg); Group 10 was diabetic rats treated with LT (11 mg/kg) and HCQ (22.5 mg/kg); Group 11 was diabetic rats treated with LT (11 mg/kg) and HCQ (45 mg/kg); Group 12 was diabetic rats treated with Telmisartan (TL) (5 mg/kg); Group 13 was diabetic rats treated with Telmisartan (TL) (10 mg/kg); Group 14 was diabetic rats treated with the combination of TL (5 mg/kg) and HCQ (22.5 mg/kg); Group 15 was diabetic rats treated with the combination of TL (5 mg/kg) and HCQ (45 mg/kg); Group 16 was diabetic rats treated with the combination of TL (10 mg/kg) and HCQ (22.5 mg/kg); Group 17 was diabetic rats treated with the combination of TL (10 mg/kg) and HCQ (45 mg/kg); Group 18 was diabetic rats treated with Azilsartan (AZ) (2 mg/kg); Group 19 was diabetic rats treated with Azilsartan (AZ) (4 mg/kg); Group 20 was diabetic rats treated with combination of AZ (2 mg/kg) and HCQ (22.5 mg/kg); Group 21 was diabetic rats treated with combination of AZ (2 mg/kg) and HCQ (45 mg/kg); Group 22 was diabetic rats treated with combination of AZ (4 mg/kg) and HCQ (22.5 mg/kg); Group 23 diabetic rats treated with combination of AZ (4 mg/kg) and HCQ (45 mg/kg); Group 24 was diabetic rats treated with Ramipril (RM) (0.2 mg/kg); Group 25 was diabetic rats treated with RM (2.3 mg/kg); Group 26 was diabetic rats treated with combination of RM […]) and HCQ (22.5 mg/kg); Group 27 was diabetic rats treated with combination of RM (0.2 mg/kg) and HCQ (45 mg/kg); Group 28 was diabetic rats treated with combination of RM (2.3 mg/kg) and HCQ (22.5 mg/kg); Group 29 was diabetic rats treated with combination of RM (2.3 mg/kg) and HCQ (45 mg/kg). The study drugs (LT and HCQ) were dissolved in distilled water and other study drugs (AZ, RM and TL) were suspended in 0.5% w/v sodium carboxy methyl cellulose (CMC) and administered orally once a day for eight weeks. Biochemical parameters like serum urea, serum creatinine, serum protein, and renal oxidative stress parameters like TBARS and GSH were assessed after the completion of eighth week of the study.

[1] abbreviates: dose mg/kg: LT 5.5, TL 5, AZ 2, RM 0.2, HCQ 22.5, alone or combined with HCQ 22.5.
Setting [2] is: dose mg/kg: LT 11, TL 10, AZ 4, RM 2.3, HCQ 45, alone or combined with HCQ 45.

Results on 5 compounds are retold here after US20160030415A1, “TREATMENT AND PROPHYLAXIS OF KIDNEY DISEASES” (priority 2013, published 2016).

`CCOc1nc2cccc(C(=O)O)c2n1Cc1ccc(-c2ccccc2-c2nc(=O)o[nH]2)cc1` [Azilsartan]: under setting [1], the Creatinine clearance is 0.69 ± 0.05 mL/min, the GSH is recorded as 9.54 ± 1.54 nM/mg, the Serum creatinine was found to be 0.98 ± 0.07 mg/dL and the Serum protein was 5.79 ± 0.37 g/dL. Also, under setting [1], the Serum urea came out at 89.83 ± 4.67 mg/dL, the TBARS is on record as 0.624 ± 0.11 nM/mg and the Urea clearance is 0.41 ± 0.07 mL/min. Besides, under setting [2], the Creatinine clearance came to 0.74 ± 0.04 mL/min, the GSH came out at 13.49 ± 0.90 nM/mg, the Serum creatinine is 0.87 ± 0.04 mg/dL and the Serum protein was 6.76 ± 0.16 g/dL. Besides, under setting [2], the Serum urea amounted to 75.94 ± 4.11 mg/dL, the TBARS came to 0.540 ± 0.04 nM/mg and the Urea clearance came to 0.44 ± 0.03 mL/min.
As to `CCN(CCO)CCCC(C)Nc1ccnc2cc(Cl)ccc12` (stereo not shown) [Hydroxychloroquine, 2-[{4-[(7-chloroquinolin-4-yl)amino]pentyl}(ethyl)amino]ethanol], under setting [1], the Creatinine clearance came to 0.60 ± 0.06 mL/min, the GSH is 8.59 ± 0.76 nM/mg, the Serum creatinine is 0.87 ± 0.07 mg/dL and the Serum protein came to 5.57 ± 0.20 g/dL. For the same compound, under setting [1], the Serum urea was 91.29 ± 7.29 mg/dL, the TBARS is on record as 0.726 ± 0.06 nM/mg and the Urea clearance is 0.36 ± 0.03 mL/min. Also, under setting [2], the Creatinine clearance amounted to 0.67 ± 0.10 mL/min, the GSH worked out at 14.29 ± 1.33 nM/mg, the Serum creatinine was found to be 0.74 ± 0.12 mg/dL and the Serum protein came out at 5.95 ± 0.31 g/dL. Under setting [2], the Serum urea turned out to be 83.64 ± 6.60 mg/dL, the TBARS is 0.608 ± 0.06 nM/mg and the Urea clearance turned out to be 0.42 ± 0.04 mL/min.
Take `CCCCc1nc(Cl)c(CO)n1Cc1ccc(-c2ccccc2-c2nn[nH]n2)cc1` [Losartan]: under setting [1], the Creatinine clearance was 0.59 ± 0.06 mL/min, the GSH turned out to be 8.66 ± 0.48 nM/mg, the Serum creatinine came to 1.23 ± 0.18 mg/dL and the Serum protein was found to be 5.23 ± 0.31 g/dL. Also, under setting [1], the Serum urea worked out at 101.45 ± 2.69 mg/dL, the TBARS is given as 0.760 ± 0.05 nM/mg and the Urea clearance turned out to be 0.33 ± 0.02 mL/min. For the same compound, under setting [2], the Creatinine clearance turned out to be 0.67 ± 0.12 mL/min, the GSH was 12.78 ± 1.48 nM/mg, the Serum creatinine stood at 0.99 ± 0.05 mg/dL and the Serum protein was 5.75 ± 0.23 g/dL. Further, under setting [2], the Serum urea was found to be 93.10 ± 4.45 mg/dL, the TBARS is on record as 0.670 ± 0.05 nM/mg and the Urea clearance is 0.44 ± 0.03 mL/min.
Take `CCOC(=O)[C@H](CCc1ccccc1)N[C@@H](C)C(=O)N1[C@H](C(=O)O)C[C@@H]2CCC[C@@H]21` [Ramipril]: under setting [1], the Creatinine clearance was 0.54 ± 0.05 mL/min, the GSH was 8.48 ± 0.59 nM/mg, the Serum creatinine was found to be 0.90 ± 0.05 mg/dL and the Serum protein amounted to 5.30 ± 0.36 g/dL. Moreover, under setting [1], the Serum urea stood at 98.33 ± 6.15 mg/dL, the TBARS came to 0.716 ± 0.06 nM/mg and the Urea clearance was found to be 0.41 ± 0.05 mL/min. Under setting [2], the Creatinine clearance came out at 0.61 ± 0.07 mL/min, the GSH came to 10.57 ± 0.37 nM/mg, the Serum creatinine amounted to 0.85 ± 0.06 mg/dL and the Serum protein was found to be 5.67 ± 0.27 g/dL. Under setting [2], the Serum urea was 87.83 ± 5.23 mg/dL, the TBARS was 0.614 ± 0.06 nM/mg and the Urea clearance came out at 0.45 ± 0.05 mL/min.
Consider `CCCc1nc2c(C)cc(-c3nc4ccccc4n3C)cc2n1Cc1ccc(-c2ccccc2C(=O)O)cc1` [Telmisartan], for which, under setting [1], the Creatinine clearance was 0.73 ± 0.07 mL/min, the GSH is on record as 9.65 ± 1.24 nM/mg, the Serum creatinine came out at 1.02 ± 0.13 mg/dL and the Serum protein came out at 5.94 ± 0.46 g/dL. Under setting [1], the Serum urea was found to be 92.39 ± 4.06 mg/dL, the TBARS came to 0.675 ± 0.07 nM/mg and the Urea clearance turned out to be 0.45 ± 0.05 mL/min. Besides, under setting [2], the Creatinine clearance amounted to 0.77 ± 0.04 mL/min, the GSH is 13.82 ± 0.34 nM/mg, the Serum creatinine worked out at 0.78 ± 0.07 mg/dL and the Serum protein turned out to be 6.53 ± 0.40 g/dL. Also, under setting [2], the Serum urea came to 82.71 ± 6.53 mg/dL, the TBARS came to 0.560 ± 0.06 nM/mg and the Urea clearance was 0.47 ± 0.04 mL/min.
